Laboratory results reported in PubChem BioAssay (NCI).
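Interpolation was linear, between the two tested concentrations surrounding the appropriate level; five concentrations were tested over 48 hours in 96-well plates. GI50 marks 50% less growth. TGI: concentration producing complete growth inhibition.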

How the values were obtained:
Assay in all cases: growth of human tumour cells (NCI), 48 h
K-562 leukemia = test system: K-562 leukemia
OVCAR-5 ovarian = test system: OVCAR-5 ovarian
HS 578T breast = test system: HS 578T breast
MCF7 breast = test system: MCF7 breast
SW-620 colon = test system: SW-620 colon
OVCAR-8 ovarian = test system: OVCAR-8 ovarian
NCI-H460 lung = test system: NCI-H460 lung
ACHN renal = test system: ACHN renal
CAKI-1 renal = test system: CAKI-1 renal
SN12C renal = test system: SN12C renal
OVCAR-3 ovarian = test system: OVCAR-3 ovarian
NCI-H522 lung = test system: NCI-H522 lung
HCT-15 colon = test system: HCT-15 colon
IGROV1 ovarian = test system: IGROV1 ovarian
HL-60(TB) leukemia = test system: HL-60(TB) leukemia
EKVX NSCLC = test system: EKVX NSCLC
SR leukemia = test system: SR leukemia
PC-3 prostate = test system: PC-3 prostate
SK-OV-3 ovarian = test system: SK-OV-3 ovarian
SK-MEL-5 melanoma = test system: SK-MEL-5 melanoma
RPMI-8226 leukemia = test system: RPMI-8226 leukemia
SF-268 CNS = test system: SF-268 CNS
UACC-62 melanoma = test system: UACC-62 melanoma
HCT-116 colon = test system: HCT-116 colon
CCRF-CEM leukemia = test system: CCRF-CEM leukemia
HOP-92 NSCLC = test system: HOP-92 NSCLC
BT-549 breast = test system: BT-549 breast
T-47D breast = test system: T-47D breast
KM12 colon = test system: KM12 colon
SNB-19 CNS = test system: SNB-19 CNS
HCC-2998 colon = test system: HCC-2998 colon
A498 renal = test system: A498 renal
SK-MEL-28 melanoma = test system: SK-MEL-28 melanoma
COLO 205 colon = test system: COLO 205 colon
SK-MEL-2 melanoma = test system: SK-MEL-2 melanoma
MOLT-4 leukemia = test system: MOLT-4 leukemia
LOX IMVI melanoma = test system: LOX IMVI melanoma
A549 NSCLC = test system: A549 NSCLC
UACC-257 melanoma = test system: UACC-257 melanoma
NCI-H23 lung = test system: NCI-H23 lung
M14 melanoma = test system: M14 melanoma
MALME-3M melanoma = test system: MALME-3M melanoma
NCI-H226 lung = test system: NCI-H226 lung
UO-31 renal = test system: UO-31 renal
DU-145 prostate = test system: DU-145 prostate
MDA-MB-435 = test system: MDA-MB-435
SF-295 CNS = test system: SF-295 CNS
786-0 renal = test system: 786-0 renal
MDA-MB-231 breast = test system: MDA-MB-231 breast
NCI/ADR-RES ovarian = test system: NCI/ADR-RES ovarian
TK-10 renal = test system: TK-10 renal
RXF 393 renal = test system: RXF 393 renal
HOP-62 NSCLC = test system: HOP-62 NSCLC
U251 CNS = test system: U251 CNS
SF-539 CNS = test system: SF-539 CNS
HT29 colon = test system: HT29 colon
SNB-75 CNS = test system: SNB-75 CNS
OVCAR-4 ovarian = test system: OVCAR-4 ovarian

SMILES: O=c1nc2oc3ccc4ccccc4c3cc-2s1
- GI50 (K-562 leukemia): 0.526 µM
- TGI (K-562 leukemia): > 100 µM
- GI50 (OVCAR-5 ovarian): > 100 µM
- TGI (OVCAR-5 ovarian): > 100 µM
- GI50 (HS 578T breast): 0.528 µM
- TGI (HS 578T breast): > 61.8 µM
- GI50 (MCF7 breast): 0.485 µM
- TGI (MCF7 breast): > 100 µM
- GI50 (SW-620 colon): 1.05 µM
- TGI (SW-620 colon): > 100 µM
- GI50 (OVCAR-8 ovarian): 29.4 µM
- TGI (OVCAR-8 ovarian): > 100 µM
- GI50 (NCI-H460 lung): 4.93 µM
- TGI (NCI-H460 lung): > 100 µM
- GI50 (ACHN renal): 38.6 µM
- TGI (ACHN renal): > 100 µM
- GI50 (CAKI-1 renal): 1.16 µM
- TGI (CAKI-1 renal): > 100 µM
- GI50 (SN12C renal): 20.4 µM
- TGI (SN12C renal): > 100 µM
- GI50 (OVCAR-3 ovarian): 0.457 µM
- TGI (OVCAR-3 ovarian): > 23.7 µM
- GI50 (NCI-H522 lung): 0.596 µM
- TGI (NCI-H522 lung): > 100 µM
- GI50 (HCT-15 colon): > 45.7 µM
- TGI (HCT-15 colon): > 100 µM
- GI50 (IGROV1 ovarian): 10.2 µM
- TGI (IGROV1 ovarian): > 100 µM
- GI50 (HL-60(TB) leukemia): 1.41 µM
- TGI (HL-60(TB) leukemia): > 100 µM
- GI50 (EKVX NSCLC): 59.6 µM
- TGI (EKVX NSCLC): > 100 µM
- GI50 (SR leukemia): 0.458 µM
- TGI (SR leukemia): > 100 µM
- GI50 (PC-3 prostate): 3.16 µM
- TGI (PC-3 prostate): > 100 µM
- GI50 (SK-OV-3 ovarian): 15.1 µM
- TGI (SK-OV-3 ovarian): > 100 µM
- GI50 (SK-MEL-5 melanoma): 2.44 µM
- TGI (SK-MEL-5 melanoma): > 100 µM
- GI50 (RPMI-8226 leukemia): 50.9 µM
- TGI (RPMI-8226 leukemia): > 100 µM
- GI50 (SF-268 CNS): 7.97 µM
- TGI (SF-268 CNS): > 100 µM
- GI50 (UACC-62 melanoma): 1.22 µM
- TGI (UACC-62 melanoma): > 100 µM
- GI50 (HCT-116 colon): 1.14 µM
- TGI (HCT-116 colon): > 100 µM
- GI50 (CCRF-CEM leukemia): 0.989 µM
- TGI (CCRF-CEM leukemia): > 100 µM
- GI50 (HOP-92 NSCLC): 1.62 µM
- TGI (HOP-92 NSCLC): > 57.8 µM
- GI50 (BT-549 breast): 4.35 µM
- TGI (BT-549 breast): > 100 µM
- GI50 (T-47D breast): 3.51 µM
- TGI (T-47D breast): > 100 µM
- GI50 (KM12 colon): 0.961 µM
- TGI (KM12 colon): > 100 µM
- GI50 (SNB-19 CNS): 6.73 µM
- TGI (SNB-19 CNS): > 100 µM
- GI50 (HCC-2998 colon): > 100 µM
- TGI (HCC-2998 colon): > 100 µM
- GI50 (A498 renal): 0.184 µM
- TGI (A498 renal): 7.86 µM
- GI50 (SK-MEL-28 melanoma): 14.6 µM
- TGI (SK-MEL-28 melanoma): > 100 µM
- GI50 (COLO 205 colon): 16.3 µM
- TGI (COLO 205 colon): > 100 µM
- GI50 (SK-MEL-2 melanoma): 3.79 µM
- TGI (SK-MEL-2 melanoma): > 100 µM
- GI50 (MOLT-4 leukemia): 1.81 µM
- TGI (MOLT-4 leukemia): > 100 µM
- GI50 (LOX IMVI melanoma): 4.09 µM
- TGI (LOX IMVI melanoma): > 100 µM
- GI50 (A549 NSCLC): > 92.7 µM
- TGI (A549 NSCLC): > 100 µM
- GI50 (UACC-257 melanoma): > 69.9 µM
- TGI (UACC-257 melanoma): > 100 µM
- GI50 (NCI-H23 lung): 28.7 µM
- TGI (NCI-H23 lung): > 100 µM
- GI50 (M14 melanoma): 1.09 µM
- TGI (M14 melanoma): > 100 µM
- GI50 (MALME-3M melanoma): 0.743 µM
- TGI (MALME-3M melanoma): > 100 µM
- GI50 (NCI-H226 lung): 17.7 µM
- TGI (NCI-H226 lung): > 100 µM
- GI50 (UO-31 renal): 33.7 µM
- TGI (UO-31 renal): > 100 µM
- GI50 (DU-145 prostate): 11.5 µM
- TGI (DU-145 prostate): > 100 µM
- GI50 (MDA-MB-435): 0.259 µM
- TGI (MDA-MB-435): 0.783 µM
- GI50 (SF-295 CNS): 2.96 µM
- TGI (SF-295 CNS): > 92.7 µM
- GI50 (786-0 renal): 3.25 µM
- TGI (786-0 renal): > 100 µM
- GI50 (MDA-MB-231 breast): 12.4 µM
- TGI (MDA-MB-231 breast): > 100 µM
- GI50 (NCI/ADR-RES ovarian): > 100 µM
- TGI (NCI/ADR-RES ovarian): > 100 µM
- GI50 (TK-10 renal): > 25.4 µM
- TGI (TK-10 renal): > 100 µM
- GI50 (RXF 393 renal): 1.83 µM
- TGI (RXF 393 renal): 21.6 µM
- GI50 (HOP-62 NSCLC): 4.7 µM
- TGI (HOP-62 NSCLC): > 79 µM
- GI50 (U251 CNS): 4.4 µM
- TGI (U251 CNS): > 100 µM
- GI50 (SF-539 CNS): 1.58 µM
- TGI (SF-539 CNS): > 100 µM
- GI50 (HT29 colon): 18 µM
- TGI (HT29 colon): > 100 µM
- GI50 (SNB-75 CNS): 0.476 µM
- TGI (SNB-75 CNS): 10.1 µM
- GI50 (OVCAR-4 ovarian): 58.4 µM
- TGI (OVCAR-4 ovarian): > 100 µM
